In assay [1] the test system is Aspergillus species. In words: Antimycotic in vitro activity (series dilution test), Aspergillus species. The following applies: Sabouraud's milieu d'epreuve, 28° C., 24 to 96 hours; for MIC: Aspergillus, read-out: MIC values in γ/ml of nutrient medium for Aspergillus species. It counts as cell-based. The procedure: (§1) The invitro tests were carried out in a series dilution test with germ inocula of an average of 5×10^4 germs/ml of substrate. The nutrient medium was (a) for dermatophytes and moulds: Sabouraud's milieu d 'epreuve and (b) for yeasts: meat extract/glucose broth. The incubation temperature was 28° C. and the duration of incubation was 24 to 96 hours.

Assay [2] relates to Microsporon felineum. In words: Antimycotic in vitro activity (series dilution test), Microsporon felineum. It counts as cell-based. The following applies: Sabouraud's milieu d'epreuve, 28° C., 24 to 96 hours; for MIC: read-out: MIC values in γ/ml of nutrient medium for Microsporon felineum. On the procedure: as §1
Assay [3] deals with Candida albicans. In words: Antimycotic in vitro activity (series dilution test), Candida albicans. The class given is cell-based. The following applies: meat extract/glucose broth, 28° C., 24 to 96 hours; for MIC: Candida albicans, read-out: MIC values in γ/ml of nutrient medium for Candida albicans. The procedure:
as §1

In assay [4] the test system is Penicillium commune. In words: Antimycotic in vitro activity (series dilution test), Penicillium commune. The following applies: Sabouraud's milieu d'epreuve, 28° C., 24 to 96 hours; for MIC: Penicillium commune, read-out: MIC values in γ/ml of nutrient medium for Penicillium commune. It counts as cell-based. On the procedure:
as §1

Assay [5] concerns Trichophyton mentagrophytes. In words: Antimycotic in vitro activity (series dilution test), Trichophyton mentagrophytes. The class given is cell-based. The following applies: Sabouraud's milieu d'epreuve, 28° C., 24 to 96 hours; for MIC: Trichophyton mentagrophytes, read-out: MIC values in γ/ml of nutrient medium for Trichophyton mentagrophytes. On the procedure:
as §1

Assay [6] has as its system Candida. In words: Antimycotic in vivo activity (oral) in candidosis of mice. The following applies: mice SPF-CF1, i.v. infection with Candida, 100 mg/kg oral one hour before and seven hours after infection. Also noted: key: +++++: very good action=≥90% of survivors on the 6th day after infection; ++++: good action=≥80% of survivors on the 6th day after infection; +++: action=≥60% of survivors on the 6th day after infection; ++: poor action=≥40% of survivors on the 6th day after infection; +: trace of action; n.a.: no action. The procedure: Mice of the type SPF-CF1 were infected intravenously with 1-2×10^6 logarithmically growing Candida cells, which were suspended in physiological sodium chloride solution. The animals were treated orally one hour before and seven hours after the infection with, in each case, 100 mg/kg of body weight of the formulations.
Untreated animals died from the infection 2 to 6 days after infection. The survival rate on the 6th day after infection was about 5% in the case of the untreated control animals.

Values after ≈ are worked out from the molar mass of the structure shown.

For `Cc1ccc(C2(n3ccnc3)c3ccccc3C(=O)c3ccccc32)cc1` [drawing 24], the MIC in assay [1] is more than 64 mg/L; in assay [2], 8 mg/L (≈ 22.8 µM); in assay [3] it was 64 mg/L (≈ 183 µM); in assay [5] it was less than 1 mg/L. Further, the “MIC values in γ/ml of nutrient medium for Penicillium commune” value (shortened to “MIC values … for Penicillium commune”) in assay [4] stood at 64 mg/L.
In the case of `CSc1ccc(C2(n3ccnc3)c3ccccc3CCc3ccccc32)cc1` [reference compound], the MIC was more than 100 mg/L in assay [1], 40 mg/L (≈ 105 µM) in assay [2], more than 100 mg/L in assay [4] and 10 mg/L (≈ 26.1 µM) in assay [5].
Turning to `c1ccc(C2(n3ccnc3)c3ccccc3C(c3ccccc3)(n3ccnc3)c3ccccc32)cc1` (stereo not drawn) [drawing 32], the “Action (survivors on the 6th day after infection)” value (“Action” below) in assay [6] was “++ (poor action=≥40% of survivors on the 6th day after infection)”.
On to `O=C1c2ccccc2C(c2ccccc2)(n2ccnc2)c2ccccc21` [drawing 18], for which the “MIC values in γ/ml of nutrient medium for Aspergillus species” value (“MIC values … for Aspergillus species” below) in assay [1] worked out at 4 mg/L. Also, the “MIC values in γ/ml of nutrient medium for Microsporon felineum” value (“MIC values … for Microsporon felineum” below) in assay [2] came out at 8 mg/L. For the same molecule, the “MIC values in γ/ml of nutrient medium for Candida albicans” value (“MIC values … for Candida albicans” for short) in assay [3] is 4 mg/L. The MIC in assay [4] is 4 mg/L (≈ 11.9 µM); in assay [5], less than 1 mg/L.
Take `c1ccc(C2(n3ccnc3)c3ccccc3Oc3ccccc32)cc1` [reference compound]: the MIC in assay [2] was more than 100 mg/L; in assay [3], 20 mg/L (≈ 61.7 µM); in assay [4], 100 mg/L (≈ 308 µM); in assay [5], more than 100 mg/L.
Regarding `Cc1ccc(C2(n3ccnc3)c3ccccc3C(=O)c3ccccc32)cc1` [drawing 25], in assay [1], the “MIC values … for Aspergillus species” value is more than 64 mg/L. The “MIC values … for Microsporon felineum” value in assay [2] came to 4 mg/L. Besides, the “MIC values … for Candida albicans” value in assay [3] is more than 64 mg/L. In addition, in assay [4], the “MIC values … for Penicillium commune” value is 8 mg/L. For the same molecule, the “MIC values in γ/ml of nutrient medium for Trichophyton mentagrophytes” value (from here on “MIC values … for Trichophyton mentagrophytes”) in assay [5] is less than 1 mg/L.
As to `c1ccc(C2(n3ccnc3)c3ccccc3Sc3ccccc32)cc1` [reference compound], the MIC was more than 100 mg/L in assay [2], 40 mg/L (≈ 117 µM) in assay [3], more than 100 mg/L in assay [4] and more than 100 mg/L in assay [5].
For `Cc1ccccc1C1(n2ccnc2)c2ccccc2C(=O)c2ccccc21` [drawing 23], the “MIC values … for Aspergillus species” value in assay [1] is more than 64 mg/L. For the same molecule, the “MIC values … for Microsporon felineum” value in assay [2] was 1 mg/L. Besides, the “MIC values … for Candida albicans” value in assay [3] is 32 mg/L. The “MIC values … for Penicillium commune” value in assay [4] came out at 4 mg/L. Also, the “MIC values … for Trichophyton mentagrophytes” value in assay [5] is less than 1 mg/L.
For `Cc1ccccc1C1(n2ccnc2)c2ccccc2C(=O)c2ccccc21` [drawing 22], the MIC was more than 64 mg/L in assay [1], less than 1 mg/L in assay [2], more than 64 mg/L in assay [3] and less than 1 mg/L in assay [5]. Besides, in assay [4], the “MIC values … for Penicillium commune” value was more than 64 mg/L.
As to `CSc1ccc(C2(n3ccnc3)c3ccccc3-c3ccccc32)cc1` [reference compound], the MIC in assay [1] was more than 100 mg/L; in assay [2], 20 mg/L (≈ 56.4 µM); in assay [3] it was 100 mg/L (≈ 282 µM); in assay [4] it was more than 100 mg/L; in assay [5], less than 4 mg/L.
On to `c1ccc(C2(n3ccnc3)c3ccccc3C(c3ccccc3)(n3ccnc3)c3ccccc32)cc1` (stereo not drawn) [drawing 26], for which the MIC in assay [3] is 4 mg/L (≈ 8.61 µM); in assay [4], more than 64 mg/L; in assay [5], 32 mg/L (≈ 68.9 µM).
Turning to `O=C1c2ccccc2C(c2ccccc2)(n2ccnc2)c2ccccc21` [drawing 21], the “MIC values … for Aspergillus species” value in assay [1] was 32 mg/L. Besides, the “MIC values … for Microsporon felineum” value in assay [2] came to 4 mg/L. Also, in assay [3], the “MIC values … for Candida albicans” value is more than 64 mg/L. The “MIC values … for Penicillium commune” value in assay [4] came out at 8 mg/L. Besides, the “MIC values … for Trichophyton mentagrophytes” value in assay [5] was less than 1 mg/L.
With `Cc1ccccc1C1(n2ccnc2)c2ccccc2C(=O)c2ccccc21` [drawing 35], the “Action” value in assay [6] is “+”.
On to `O=C1c2ccccc2C(c2ccccc2)(n2ccnc2)c2ccccc21` [drawing 20], for which the “MIC values … for Aspergillus species” value in assay [1] worked out at 64 mg/L. In assay [2], the “MIC values … for Microsporon felineum” value came to 4 mg/L. Further, the “MIC values … for Candida albicans” value in assay [3] was more than 64 mg/L. Also, the “MIC values … for Penicillium commune” value in assay [4] came to 8 mg/L. Further, the “MIC values … for Trichophyton mentagrophytes” value in assay [5] is less than 1 mg/L.
In the case of `O=C1c2ccccc2C(c2ccccc2)(n2ccnc2)c2ccccc21` [drawing 31], in assay [6], the “Action” value is recorded as “+++ (action=≥60% of survivors on the 6th day after infection)”.
In the case of `O=C1c2ccccc2C(c2ccccc2)(n2ccnc2)c2ccccc21` [drawing 19], the “MIC values … for Aspergillus species” value in assay [1] turned out to be 32 mg/L. The “MIC values … for Microsporon felineum” value in assay [2] is less than 1 mg/L. Moreover, the “MIC values … for Candida albicans” value in assay [3] stood at 8 mg/L. The “MIC values … for Penicillium commune” value in assay [4] is 8 mg/L. The “MIC values … for Trichophyton mentagrophytes” value in assay [5] was less than 1 mg/L.

Values taken from patent US4183940A, “Antimycotic imidazolyl-9,10-dihydro-anthracene derivatives” (Bayer Aktiengesellschaft, priority 1976, dated 1980).
